Key:
MMP-1 = MMP-1 secretion ELISA in UV-A irradiated HDF; format: cell-based, human
Procedure: (§1) For measuring various collagen degradation MMP and inflammatory cytokine, collagen content in a cell, an enzyme-linked immunosorbent assay was used after UV-A irradiation. After irradiating HDF cell with UV-A, the cells were incubated with various concentrations of sample. After 24 h, the supernatants of the HDF cells were collected, and used for testing MMP, cytokine, hyaluronan, and collagen. For testing, Biotrak™ ELISA kits (Amersham Pharmacia Biosciences, England, UK), procollagen ELISA kit (Takara Bio Inc), and Hyaluronan ELISA kits (R&D system) were used according to the manufacturer's instructions.
(§2) Collagens are known to as main component of the skin and degraded by collagenase MMPs. Among MMPs, MMP-1, MMP-8 and MMP-13 are family of collagenases which are capable of degrading triple-helical fibrillar collagens. […] Therefore, inhibitory effect of chromenes on collagenase MMP secretions from the UV-A irradiated dermal fibroblasts was determined using ELISA assay.

IL-1β = IL-1β secretion ELISA in UV-A irradiated HDF; format: cell-based, human
Procedure: as §1
(§3) To investigate effect of chromenes on the cytokine production in UV-A irradiated dermal fibroblasts, inflammatory cytokine production was measured using ELISA assay (FIGS. 18 to 20).

type I procollagen = assay: Type I procollagen ELISA in UV-A irradiated HDF; format: cell-based, human
Procedure: as §1
Alterations of collagen have been thought to be a cause of the clinical skin changes of photoaging. The dermis contains predominantly type I collagen (85-90%) and the precursor molecules of collagen are called procollagen, which is synthesized in the form of polypeptide chains of type I collagen in dermal fibroblasts. UV irradiation induces the activity and synthesis of MMP in human skin, which mediate collagen destruction that results in much connective tissue damage. Therefore, we also studied the effects of chromenes on the level of type I procollagen in UVA-irradiated cultured dermal fibroblasts. The procollagen level was determined in the culture medium by ELISA assay.

[1] = test system: human dermal fibroblasts (HDF cells); assay: Protective effect on viability of UV-A irradiated dermal fibroblasts (MTT assay); format: cell-based
Procedure: HDF cells were seeded in 24-well plate at a density of 1×10^5 cells/well with DMEM containing 10% FBS, 2 mM gluramine and 100 μg/ml penicillin-streptomycin at 37° C. humidified atmosphere of 5% CO2. After incubation for 24 h, the cells were exposed to UV-A energy at the range of 6 J/cm^2 (365 nm UV-A light source, Bio-Sun lamp, Vilber Lourmat, Marine, France) in 200 μl of phosphate buffered saline (PBS) to each well. After UV-A irradiation, the cells were incubated for 24 h in serum-free DMEM.
Viability level of HDF cell was determined through ability of mitochondria capable of converting 3-(4,5-dimethylthiazol-2-yl)-2,5-diphenyl tetrazolium bromide (MTT) into a insoluble formazan product. Dermal fibroblasts were grown in 96-well plates at a density of 1×10^4 cells/well. After 24 h, after irradiating UV-A (6 J/cm^2) to the cell, the cells were cultured with the chromenes sample or without the chromenes sample at 37° C. humidified atmosphere of 5% CO2. The supernatant medium was removed, and the cells were incubated with 100 μl of MTT (1 mg/ml) for 4 h. The unconvertived MTT was removed, dimethyl sulfoxide (DMSO) was added, and then cell viability was measured at the absorbance at 540 nm using a microplate reader (Tecan Austria GmbH, Austria) to determine the amount of formazan in a cell. Relative cell viability was quantified as a percentage compared to the control group.

IL-6 = IL-6 secretion ELISA in UV-A irradiated HDF; format: cell-based, human
Procedure: as §1, §3

[2] = test system: intracellular reactive oxygen species (ROS) in HDF cells; assay: Intracellular ROS generation by UV-A (DCFH-DA); format: cell-based, human
Procedure: Intracellular formation of reactive oxygen species (ROS) was assessed using oxidation sensitive dye 2′,7′-dichlorofluorescin diacetate (DCFH-DA) as the substrate. HDF cells growing in fluorescence microtiter 96-well plates for 24 h were exposed to UV-A (6 J/cm^2). The exposed cells were loaded with 20 μM DCFH-DA dissolved in PBS and incubated for 30 min in the dark at 37° C. humidified atmosphere of 5% CO2. […] The formation of 2′,7′-dichlorofluorescein (DCF) dissolved in PBS due to oxidation of DCFH in the presence of various ROS was read after every 20 min at the excitation wavelength (Ex) of 485 nm and the emission wavelength (Em) of 535 nm using a fluorescence microplate reader (Tecan Austria GmbH, Salzburg, Austria).
The cell system was labeled with DCFH-DA and followed by UV-A irradiation.

TNF-α [3] = assay: TNF-α mRNA and protein expression (RT-PCR, Western blot) in UV-A irradiated HDF; format: cell-based, human
Procedure: Total cellular RNA was isolated using Trizol reagent (Invitrogen Co., CA, USA). The 2 μg of isolated RNA was reverse transcribed into cDNA using oligo-(dT) primer (Promega, Madison, Wis., USA). Target cDNA was amplified using the forward and reverse primer sequences. The amplification was carried out at 95° C. for 45 sec, 60° C. for 50 sec and 72° C. for 60 sec for cycles. After amplification step, extension process proceeded consecutively at 72° C. for 5 min. […] Gels were stained with 1 mg/ml of EtBr and photographed by UV illumination using AlphaEase® gel image analysis software (Alpha Innotech., San Leandro, Calif., USA).
Whole cells were lysed in RIPA buffer (Sigma-Aldrich Corp., St. Louis, USA). After centrifugation, total protein amount of cell lysates was determined using Lowry method (BioRad Laboratories, Hercules, Calif., USA). […] All primary monoclonal antibodies were diluted with TBS-T at 1:1000 ratio. Bound antibodies were detected by horseradish peroxidase-conjugated secondary antibodies for 1 h at room temperature and the immunoreactive proteins were detected using a chemiluminescent ECL assay kit (Amersham Pharmacia Biosciences, England, UK) according to the manufacturer's instructions. Western blot bands were visualized using a LAS3000® Luminescent image analyzer (Fujifilm Life Science, Tokyo, Japan).

[4] = test system: intracellular glutathione (GSH) in HDF cells; assay: Intracellular GSH level (mBBr) after UV-A; format: cell-based, human
Procedure: Intracellular glutathione (GSH) level in intact cells was determined using monobromobimane as a thiol-staining reagent. HDF cells were seeded into fluorescence microtiter 96-well plates at a density of 5×10^3 cells/well. Cell were washed three times with PBS and treated with various concentrations of the compounds after 6 J/cm^2 of UV-A irradiation and incubated for 30 min. 0.04 mM of Monobromobimane was added to cells and staining was carried out for 24 h at 37° C. in the dark. After staining fluorescence intensity was measured (excitation and emission: 360 and 465 nm) using a GENios® fluorescence microplate reader (Tecan Austria GmbH, Salzburg, Austria).
GSH is the most abundant low molecular weight thiol inside mammalian cells, and changes in glutathione level directly reflect intracellular redox alterations. To investigate the relationship between the increased ROS and the level of antioxidant materials in cells, the intracellular GSH level was measured.

[5] = test system: cell membrane proteins of HDF cells; assay: Cell membrane protein oxidation (carbonyl groups, DNPH) after UV-A; format: cell-based, human
Procedure: The amount of carbonyl groups in cell membrane proteins was determined to assess the cellular protein oxidation level that is a standard of determining the degree of cell membrane damage. HDF cells were co-cultured with various concentrations of compounds for 24 h after 6 J/cm^2 of UV-A irradiation. Cell were washed three times with PBS and lysed in lysis buffer without reducing agents (25 mM Tris-HCl, pH 7.8, 2 mM EDTA, 180 mM NaCl and 1% Triton X-100). Aliquots of cell lysates were separately incubated then trichloroacetic acid (400 μl from 20% trichloroacetic acid) was added to each reaction mixture and solubilized proteins were precipitated by centrifugation at 3,000 rpm for 15 minutes. Precipitated protein was resuspended in 2% 2,4-dinitrophenylhydrazine (2 mM HCl) and incubated at room temperature for 20 min. The protein was precipitated again with 20% trichloroacetic acid and the pellet was washed three times with ethanol:ethylacetate (1:1 v/v) solution. The pellet was then dissolved in 6 M guanidin hydrochloride (500 μl) and incubated for 15 min at 37° C. After centrifugation at 1,500 g for 5 min, absorbance of the supernatant was recorded against a complementary blank at 370 nm using a GENios® fluorescence microplate reader (Tecan Austria GmbH, Salzburg, Austria).

hyaluronan = assay: Hyaluronan secretion ELISA in UV-A irradiated fibroblasts; format: cell-based, human
Procedure: as §1
Then, we evaluated effect of chromenes on hyaluronan secretion by UV-A irradiation.

fibronectin = assay: Immunofluorescent labeling of fibronectin after UV-A; format: cell-based, human; conditions: 10 μM
Procedure: (§4) Immunostaining is used to determine the subcellular distribution and organization of proteins. Cells were grown in 6-well plates, Aspirate liquid, then cover cells to a depth of 2-3 mm with 4% formaldehyde in PBS for 15 min at room temperature. Aspirate fixative, rinse three times in PBS for 5 minutes each then incubated primary antibody and for overnight at 4° C. Rinse three times in PBS for 5 min each. Incubate specimen in fluorochrome-conjugated secondary antibody diluted in Antibody Dilution Buffer for 1-2 h at room temperature in dark and incubated with Hoechest 33342 (Sigma-Aldrich Co. MO, USA). For best results, examine specimens immediately using appropriate excitation wavelength. For long-term storage, store slides flat at 4° C. protected from light. The image of HDF cells were collected using Leica invented microscopy (DM IRB) with 40× objective and a digital CCD camera (CTR 6000, Leica, Wetzlar, Germany) under fluorescence.
(§5) It has been reported that the exposure to UV-A causes degradation of collagen and fibronectin in the extracellular matrix. […] Results were evaluated through the images of the labeling assay under a fluorescent microscope with the previously mentioned excitation and emission values.

[6] = test system: membrane lipid hydroperoxides of HDF cells; assay: Cell membrane lipid peroxidation (DPPP) after UV-A; format: cell-based, human
Procedure: Intracellular lipid hydroperoxide levels were determined by the fluorescence probe, diphenyl-1-pyrenylphosphine (DPPP). HDF cells were seeded into fluorescence microtiter 96-well plates at a density of […] using serum-free media. After 80% confluence, HDF cells were treated with various concentrations of compounds and incubated for 24 h after 6 J/cm^2 of UV-A irradiation. Then, cells were washed three times with PBS and labeled with 13 μM DPPP (dissolved in DMSO) for 24 h at 37° C. in the dark. DPPP oxide fluorescence intensity was measured after 24 h at the excitation wavelength (Ex) of 361 nm and the emission wavelength (Em) of 380 nm using a GENios® fluorescence microplate reader (Tecan Austria GmbH, Salzburg, Austria).
The levels of lipid hydroperoxides in the presence and absence of chromenes were examined by using specific fluorescence probe, DPPP (FIG. 16). DPPP has been used as a sensitive method for measuring lipid hydroperoxides of cell membranes, since it successfully incorporates into membranes and oxidizes hydroperoxides to emit DPPP-oxide fluorescence.

TNF-α [7] = assay: TNF-α secretion ELISA in UV-A irradiated HDF; format: cell-based, human
Procedure: as §1, §3

hyaluronan synthase 1 = assay: Immunofluorescent labeling of hyaluronan synthase 1 after UV-A; format: cell-based, human; conditions: 10 μM
Procedure: as §4, §5

MMP-13 = MMP-13 secretion ELISA in UV-A irradiated HDF; format: cell-based, human
Procedure: as §1, §2

HDF cells = assay: Phototoxicity determination (MTT, compounds present during UV-A); format: cell-based, human; conditions: retinoic acid 5 μM during UV-A
Procedure: HDF cells are exposed to UV-A light in the presence of chromenes and retinoic acid in concentrations of 5, 10, and 20 μM and 1, 2, and 5 μM, respectively. After 24 h, cell viability was determined by MTT assay.
In order to determine whether compounds have phototoxic effect, the cell viability of dermal fibroblasts was evaluated using MTT assay. Cells were co cultured with compounds and retinoic acid during UV-A irradiation. […] Therefore, the concentration of 1 μM retinoic acid was selected as a positive control for further experiment.

[8] = A and B 5 to 20 μM, C 1 to 10 μM
[9] = Homo sapiens, retinoic acid 1 μM
[10] = Homo sapiens, HDF, retinoic acid 1 μM

Compound: CC(C)=CCC/C(=C/CC/C(C)=C/CC[C@]1(C)CCc2cc(O)cc(C)c2O1)C(=O)O [Compound A, sargachromenol]
- MMP-1 secretion (in words) (MMP-1; dose-dependent): significantly reduced
- MMP-1 inhibition (%) (MMP-1; samples 10 μM): 27.76%
- IL-1β secretion (in words) (IL-1β; [8]): slightly reduced
- Inhibition of IL-1β secretion (%) (IL-1β; samples 10 μM): 10.07%
- Procollagen (%) (type I procollagen; samples 10 μM): 115.79%
- Fibroblasts protection (%) ([1]; samples 10 μM): 37.25%
- IL-6 secretion (in words) (IL-6; [8]): slightly reduced
- Inhibition of IL-6 secretion (%) (IL-6; samples 10 μM): 11.11%
- ROS scavenging (%) ([2]; samples 10 μM): 38.58%
- Inhibition of TNF-α expression (TNF-α [3]): failed to show significant activity
- Enhancement of GSH level (%) ([4]; samples 10 μM): 23.17%
- Inhibition of protein oxidation (%) ([5]; samples 10 μM): 30.57%
- Hyaluronan (%) (hyaluronan; samples 10 μM): 16.67%
- Protection of fibronectin decomposition (fibronectin): not as significant as compound C
- Inhibition of lipid peroxidation (%) ([6]; samples 10 μM): 15.63%
- TNF-α secretion (in words) (TNF-α [7]; [8]): slightly reduced
- Inhibition of TNF-α secretion (%) (TNF-α [7]; samples 10 μM): 20.59%
- Hyaluronan synthase 1 amount (hyaluronan synthase 1): reduced
- MMP-13 secretion (in words) (MMP-13; dose-dependent): significantly reduced
- MMP-13 inhibition (%) (MMP-13; samples 10 μM): 23.82%

Compound: CC1=C(/C=C/C(C)=C/C=C/C(C)=C/C(=O)O)C(C)(C)CCC1 [Retinoic acid, retinoic acid, reference compound]
- inhibition at 1 µM (MMP-1; [9]): 30.7%
- inhibition at 1 µM (IL-1β; [9]): 6.71%
- Type I procollagen secretion level (type I procollagen; 1 μM, culture medium, UV-A irradiated HDF): 60 ng/mL
- Procollagen (%) (type I procollagen; retinoic acid 1 μM): 57.89%
- Fibroblasts protection (%) ([1]; retinoic acid 1 μM): 12.21%
- inhibition at 1 µM (IL-6; [9]): 14.1%
- IL-6 level after treatment (IL-6; at the same concentration (1 μM), UV-A irradiated HDF): 119 pg/mL
- ROS scavenging (%) ([2]; retinoic acid 1 μM): 46.60%
- Enhancement of GSH level (%) ([4]; retinoic acid 1 μM): 15.85%
- inhibition at 1 µM [5, 10]: 55.4%
- Hyaluronan (%) (hyaluronan; retinoic acid 1 μM): 31.11%
- inhibition at 1 µM [6, 10]: 21.6%
- inhibition at 1 µM (TNF-α [7]; [9]): 24.4%
- Phototoxicity (HDF cells): a little phototoxic effect
- inhibition at 1 µM (MMP-13; [9]): 37.1%

Reference: patent US20130338221A1, “PHOTOAGING PROTECTIVE COMPOSITION CONTAINING CHROMENES DERIVED FROM SARGASSUM HORNERI” (PUKYONG NATIONAL UNIVERSITY INDUSTRY-UNIVERSITY C, priority 2012, published 2013)
